{"source": "the supplement of paper PMC10307832", "test_in_all_cases": "relative viability (nuclei count vs DMSO), 5 days (fraction); higher = more cells survive", "key": {"Trametinib + Olaparib": {"compound": "CC(=O)Nc1cccc(-n2c(=O)n(C3CC3)c(=O)c3c(Nc4ccc(I)cc4F)n(C)c(=O)c(C)c32)c1 [Trametinib] + O=C(c1cc(Cc2n[nH]c(=O)c3ccccc23)ccc1F)N1CCN(C(=O)C2CC2)CC1 [Olaparib] (partner 8 µM)", "how_it_was_run": "(§1)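 Lung cancer cell lines in 1536-well plates were dosed by pin tool the day after seeding, either with one drug alone or with a fixed anchor-drug dose plus five library-drug doses (not always all listed) in √10 steps. After 5 days, cells were fixed and their nuclei stained in one step (final 0.05% Triton X-100, 1% formaldehyde, 1 ug/ml Hoechst), then counted on 4× images. Relative viability is the nuclei count in treated wells divided by that in vehicle wells. Values are medians of duplicate plates.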"}, "[1]": {"compound": "CN1C=C(C2=CC=CC=C21)/C=C\\3/C4=C(C=CC=N4)NC3=O + CC(=O)c1c(C)c2cnc(Nc3ccc(N4CCNCC4)cn3)nc2n(C2CCCC2)c1=O [Palbociclib] (partner 0.5 µM)", "how_it_was_run": "as §1"}, "Trametinib + Crizotinib": {"compound": "CC(=O)Nc1cccc(-n2c(=O)n(C3CC3)c(=O)c3c(Nc4ccc(I)cc4F)n(C)c(=O)c(C)c32)c1 [Trametinib] + C[C@@H](Oc1cc(-c2cnn(C3CCNCC3)c2)cnc1N)c1c(Cl)ccc(F)c1Cl [Crizotinib] (partner 1 µM)", "how_it_was_run": "as §1"}, "Trametinib + Linsitinib": {"compound": "CC(=O)Nc1cccc(-n2c(=O)n(C3CC3)c(=O)c3c(Nc4ccc(I)cc4F)n(C)c(=O)c(C)c32)c1 [Trametinib] + C[C@]1(O)C[C@@H](c2nc(-c3ccc4ccc(-c5ccccc5)nc4c3)c3c(N)nccn32)C1 [Linsitinib] (partner 1 µM)", "how_it_was_run": "as §1"}}}
{"cell line": "UMC-11", "values": [{"measurement": "relative viability", "setting": "Trametinib + Olaparib; first compound 0.0025 µM", "result": 0.547}, {"measurement": "relative viability", "setting": "Trametinib + Olaparib; first compound 0.007906 µM", "result": 0.455}, {"measurement": "relative viability", "setting": "Trametinib + Olaparib; first compound 0.07906 µM", "result": 0.303}, {"measurement": "relative viability", "setting": "Trametinib + Olaparib; first compound 0.25 µM", "result": 0.29}, {"measurement": "relative viability", "setting": "[1]; first compound 0.02 µM", "result": 0.3}, {"measurement": "relative viability", "setting": "[1]; first compound 0.06325 µM", "result": 0.318}, {"measurement": "relative viability", "setting": "[1]; first compound 0.2 µM", "result": 0.358}, {"measurement": "relative viability", "setting": "[1]; first compound 0.6325 µM", "result": 0.344}, {"measurement": "relative viability", "setting": "[1]; first compound 2 µM", "result": 0.332}, {"measurement": "relative viability", "setting": "Trametinib + Crizotinib; first compound 0.0025 µM", "result": 0.634}, {"measurement": "relative viability", "setting": "Trametinib + Crizotinib; first compound 0.007906 µM", "result": 0.591}, {"measurement": "relative viability", "setting": "Trametinib + Crizotinib; first compound 0.025 µM", "result": 0.679}, {"measurement": "relative viability", "setting": "Trametinib + Crizotinib; first compound 0.07906 µM", "result": 0.647}, {"measurement": "relative viability", "setting": "Trametinib + Crizotinib; first compound 0.25 µM", "result": 0.566}, {"measurement": "relative viability", "setting": "Trametinib + Linsitinib; first compound 0.0025 µM", "result": 1.01}, {"measurement": "relative viability", "setting": "Trametinib + Linsitinib; first compound 0.007906 µM", "result": 1.04}, {"measurement": "relative viability", "setting": "Trametinib + Linsitinib; first compound 0.025 µM", "result": 0.929}, {"measurement": "relative viability", "setting": "Trametinib + Linsitinib; first compound 0.07906 µM", "result": 1.07}, {"measurement": "relative viability", "setting": "Trametinib + Linsitinib; first compound 0.25 µM", "result": 0.974}]}
